The target in one data set is T1, Human M2 (Homo sapiens, UniProt P08172).
T1 construct: expressed in transfected cells; host or cells: CHO-K1
T1 sequence (P08172 1-466): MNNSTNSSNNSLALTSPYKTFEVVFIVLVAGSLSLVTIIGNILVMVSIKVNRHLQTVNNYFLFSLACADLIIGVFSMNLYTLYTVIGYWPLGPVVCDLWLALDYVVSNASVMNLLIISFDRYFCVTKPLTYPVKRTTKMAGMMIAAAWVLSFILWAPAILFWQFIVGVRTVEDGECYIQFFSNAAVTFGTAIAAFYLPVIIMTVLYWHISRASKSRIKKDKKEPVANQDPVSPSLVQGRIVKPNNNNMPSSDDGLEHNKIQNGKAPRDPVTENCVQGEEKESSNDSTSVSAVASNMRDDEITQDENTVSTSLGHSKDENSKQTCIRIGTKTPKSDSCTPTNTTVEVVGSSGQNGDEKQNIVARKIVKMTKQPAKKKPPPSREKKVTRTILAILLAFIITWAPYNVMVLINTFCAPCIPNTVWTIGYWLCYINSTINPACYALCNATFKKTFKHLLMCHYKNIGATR
In words: M2 cell-based functional assay, calcium mobilization (selectivity). Conditions: for Emax at 30 µM: % ACh maximum at 30 μM; for EC50: M2 cell-based functional assay, calcium flux. The method, boiled down: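 CHO-K1 cells stably expressing receptor, Fluo-4-AM loaded (final 1.15 μM), compound added (140 s) then ACh at EC20 and EC80; Ca flux read at 480/530 nm. Normalized to max ACh response; agonist, PAM (EC20 increase) and antagonist (EC80 decrease) activity fitted by four-parameter logistic for EC50 and Emax.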
Background: Calcium assays in cells follow changes in intracellular calcium, usually with a dye or a luminescent sensor.

Data set [1] can be described thus: MDCK-MDR1 efflux ratio and permeability. Type of data set: in vitro ADME. Conditions: dog, MDCK-MDR1. The text has this: (§1) Compounds may be tested in in vitro assays to investigate both metabolism and pharmacokinetics. These assays may be performed according to known methods as generally described in the following references: Conde-Ceide et al. ACS Med. Chem. Lett. 2015, 6, 716-720; Morris et al. J. Med. Chem. 2014, 57, 10192-10197; and Bubser et al. ACS Chem. Neurosci. 2014, 5, 920-942.

A further data set has as its system MDCK-MDR1. The data set is described as follows: MDCK-MDR1 efflux ratio and permeability. Type of data set: in vitro ADME. The settings on record: efflux ratio.
Description: as §1

Data set [2] can be described thus: Rat fraction unbound in plasma. The format is in vitro ADME. The settings on record: read-out: Rat Fu (plasma).
Description: as §1

The nature of another data set: Dog intrinsic clearance. Type of data set: in vitro ADME.
Description: as §1

Data set [3] is described as follows: Human intrinsic clearance. Type of data set: in vitro ADME.
Description: as §1

The next data set has as its target P450 3A4 (Homo sapiens, UniProt P08684). The data set is described as follows: P450 3A4 inhibition. The format is in vitro ADME.
Description: as §1

The target in the next data set is P450 2D6 (Homo sapiens, UniProt P10635). The data set is described as follows: P450 2D6 inhibition. The format is in vitro ADME.
P450 2D6, sequence (P10635 whole entry): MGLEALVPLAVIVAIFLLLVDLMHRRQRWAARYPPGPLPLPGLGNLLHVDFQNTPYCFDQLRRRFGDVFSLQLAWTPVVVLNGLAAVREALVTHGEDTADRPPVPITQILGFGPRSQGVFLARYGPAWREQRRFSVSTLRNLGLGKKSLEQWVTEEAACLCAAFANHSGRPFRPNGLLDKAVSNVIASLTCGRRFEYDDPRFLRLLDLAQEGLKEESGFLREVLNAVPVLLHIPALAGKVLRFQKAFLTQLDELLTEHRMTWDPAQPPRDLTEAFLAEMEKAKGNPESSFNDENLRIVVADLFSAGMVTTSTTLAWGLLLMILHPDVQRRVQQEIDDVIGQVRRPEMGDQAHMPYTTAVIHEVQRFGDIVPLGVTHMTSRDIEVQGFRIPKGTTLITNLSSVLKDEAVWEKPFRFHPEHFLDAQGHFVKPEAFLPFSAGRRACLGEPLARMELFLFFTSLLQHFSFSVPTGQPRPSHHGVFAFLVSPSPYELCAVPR
Description: as §1

A further data set addresses P450 2C9 (Homo sapiens, UniProt P11712). In words: P450 2C9 inhibition. Type of data set: in vitro ADME.
Description: as §1

Data set [4] is described as follows: In vivo pharmacokinetic study in dog.

P450 2C9, sequence (P11712 whole entry): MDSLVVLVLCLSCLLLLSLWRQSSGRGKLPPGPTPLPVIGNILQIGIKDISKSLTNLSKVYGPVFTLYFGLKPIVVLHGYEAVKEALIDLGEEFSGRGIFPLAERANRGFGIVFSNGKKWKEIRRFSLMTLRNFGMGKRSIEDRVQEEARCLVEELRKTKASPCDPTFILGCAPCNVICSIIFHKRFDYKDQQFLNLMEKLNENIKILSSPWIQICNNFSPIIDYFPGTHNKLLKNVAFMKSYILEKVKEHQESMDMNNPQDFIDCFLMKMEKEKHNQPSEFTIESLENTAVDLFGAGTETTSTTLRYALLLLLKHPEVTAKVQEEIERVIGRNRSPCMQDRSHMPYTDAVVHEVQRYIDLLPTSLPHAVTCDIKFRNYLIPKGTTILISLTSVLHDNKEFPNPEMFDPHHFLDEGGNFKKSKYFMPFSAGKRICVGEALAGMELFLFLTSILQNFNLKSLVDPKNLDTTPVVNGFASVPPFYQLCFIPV
P450 3A4, sequence (P08684 whole entry): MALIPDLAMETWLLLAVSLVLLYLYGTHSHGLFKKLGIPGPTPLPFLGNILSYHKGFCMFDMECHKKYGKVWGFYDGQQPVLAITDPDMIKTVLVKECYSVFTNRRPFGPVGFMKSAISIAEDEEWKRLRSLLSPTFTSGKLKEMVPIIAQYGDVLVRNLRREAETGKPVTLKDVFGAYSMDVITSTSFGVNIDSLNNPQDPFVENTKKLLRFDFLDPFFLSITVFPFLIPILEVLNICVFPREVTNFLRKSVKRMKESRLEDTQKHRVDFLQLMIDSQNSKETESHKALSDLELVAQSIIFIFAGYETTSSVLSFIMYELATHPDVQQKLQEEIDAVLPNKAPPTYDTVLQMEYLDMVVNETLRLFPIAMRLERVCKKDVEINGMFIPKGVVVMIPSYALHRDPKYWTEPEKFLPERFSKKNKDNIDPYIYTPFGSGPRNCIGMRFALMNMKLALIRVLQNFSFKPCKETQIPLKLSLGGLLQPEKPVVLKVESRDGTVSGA

Usually Emax stands for the maximal effect, on the per cent scale that the assay sets. A word on the EC50: it is the concentration at which the effect is half-maximal. What is called Papp A→B is the apparent permeability from the apical to the basolateral side of a cell layer. For orientation: CLint scaled means the capacity of the preparation to metabolise the compound, expressed as a volume cleared per time. Read a low CLint scaled as slow turnover. A word on the IC50: it is the concentration needed to halve the response being measured. A high value points to weaker potency in that assay. For the compound `[2H]C1([2H])Oc2ccc(OC3CCN(c4nc5c(cc4C)C(=O)NC5)CC3)cc2OC1([2H])[2H]` [Compound 3, 2-(4-((2,3-dihydrobenzo[b][1,4]dioxin-6-yl-2,2,3,3-d4)oxy)piperidin-1-yl)-3-methyl-6,7-dihydro-5H-pyrrolo[3,4-b]pyridin-5-one], the Emax at 30 µM on Human M2 came to 61%. Besides, at Human M2, the EC50 was 0.658 µM. Further, in data set [1], the Papp A→B is 45.5 ×10⁻⁶ cm/s. Moreover, the “MDCK-MDR1 ER” value in the data set with MDCK-MDR1 was 1.3. In addition, the fraction unbound in data set [2] was 0.026. The values for the CLint scaled (in the data set “Dog intrinsic clearance”; in data set [3]) were 19 mL/min/kg and 15 mL/min/kg, respectively. The IC50 against P450 3A4, on P450 2D6 and on P450 2C9 was greater than 100 µM each time. The “Dog oral F” value in data set [4] (3 mg/kg oral) worked out at 89%. The clearance in data set [4] (plasma, read-out: Dog CLp) was 1.8 mL/min/kg. The half-life in [4] (plasma, read-out: Dog Elim. t1/2 (converted)) was 7.6 h. Moreover, the Vd in [4] (plasma, read-out: Dog Vss) turned out to be 1 L/kg.
Take `[2H]C1([2H])Oc2ccc(OC3CCN(c4nc5nn(C)c(=O)n5c(C)c4C)CC3)cc2OC1([2H])[2H]` [Compound A10, 7-(4-((2,3-dihydrobenzo[b][1,4]dioxin-6-yl-2,2,3,3-d4)oxy)piperidin-1-yl)-2,5,6-trimethyl-[1,2,4]triazolo[4,3-a]pyrimidin-3(2H)-one]: on Human M2, the Emax at 30 µM amounted to 54% and the EC50 was 1.52 µM.
For `[2H]C1([2H])Oc2ccc(OC3CCN(c4nc5nn(C)c(=O)n5cc4C)CC3)cc2OC1([2H])[2H]` [Compound A6, 7-(4-((2,3-dihydrobenzo[b][1,4]dioxin-6-yl-2,2,3,3-d4)oxy)piperidin-1-yl)-2,6-dimethyl-[1,2,4]triazolo[4,3-a]pyrimidin-3(2H)-one], on Human M2, the Emax at 30 µM worked out at 68% and the half-maximal effective concentration (EC50) is 0.499 µM.

These data come from patent publication US12552790B2, “Positive modulators of the muscarinic acetylcholine receptor M4” (Vanderbilt University, priority 2023, dated 2026).
